Key:
[1] = system: caspase-1 activity in activated THP-1 cells; experiment: Caspase-1 activity assay in stimulated THP-1 cells; assay type: cell-based, human; conditions: P3 peptide in the presence of P1-47-66 (1.0 nM), Figure 2A
vascular leakage = conditions: given in vivo to mice in the absence of APC or any P1 peptide; cited from earlier work

Substance	synergism with P1-47-66 for reducing caspase-1 activity [1]	vascular leakage in mice (vascular leakage)
P3-42-65: PAR3-derived peptide comprising residues 42-65 (GAPPNSFEEFPFSALEGWTGATIT; UniProt O00254 42-65, looked up, fragment)	reduces caspase-1 activity synergistically	reduce vascular leakage
P3-51-65: PAR3-derived peptide, residues 51-65 (FPFSALEGWTGATIT; UniProt O00254 51-65, looked up, fragment)	similarly showed synergism	–

From article PMC11610403 (Journal of thrombosis and haemostasis : JTH, 2024)
